Measured values taken from patent publication US4892826A, “Process for the preparation of urokinase derivatives” (Abbott Laboratories, priority 1988, dated 1990).
Each block holds one molecule with its values, some of them ahead of it.

Assays:
urokinase = urokinase (Homo sapiens, UniProt P00749); experiment: biochemical
Text: The optimal concentration of arginine can be approximated by its apparent Ki value for inhibition of urokinase as calculated from a Dixon plot. Dixon, M, Biochem. J., 55, 170-171 (1953). […] It is preferred that the concentration of arginine chosen will maximally saturate the urokinase molecule and confer a protective effect against the previously discussed over reduction of the disulfide bridges.

[1] = Urokinase amidolytic activity assay with chromogenic substrate S-2444; assay type: biochemical; conditions: isolated derivative
Description: The reduction of the three disulfide bridges can be monitored, for example, by assays of the amidolytic activity of the urokinase, by titration of the available SH groups, or by reverse phase chromatography of the reduced urokinase. Preferably, the reduction is monitored by assaying the gain or loss of amidolytic activity of the urokinase.
Approximately 1 to 2 mg/ml of the UK23 solution, in 0.1M phosphate (pH 7), was diluted with 1 volume of 0.5M arginine in water (pH 7). The reducing agent DTT, from a fresh stock solution of 1M in water, was added to adjust the final DTT concentration to 10 mM. […] The absorbance increase at 406 nm was monitored over a five minute period. One enzyme unit was defined as an increase in absorbance at 406 nm of 1 unit per minute.

Molecule: N=C(N)NCCC[C@H](N)C(=O)O [arginine]
Ki (urokinase): 70 mM

Molecule: GPRP-Amino hexanoic acid-LKFQCGQK Urokinase Derivative [Example 1]
amidolytic activity, % of the initial UK23 value ([1]; repeated procedures): 80% to 100

active (amidolytic activity of resulting derivative) [1]: 100%
Molecule: Heparin-LKFQCGQK Urokinase Derivative [Example 4]
